In US12612431B2, “Cyclic compounds for treating cancer” (University of South Florida, priority 2021, dated 2026):

Key:
[1] = cited from earlier work
[2] = general statement on the positive control; cited from earlier work
pronase = assay: Enzymatic stability assay toward pronase; assay type: in vitro ADME; conditions: 0.1 mg/mL pronase, 100 mM ammonium bicarbonate buffer, 37° C., 20 h
Experimental: As M-2-5 is a promising ligand to block EGFR signaling in vitro, its enzymatic stability toward pronase (the enzyme theoretically digesting peptides into single amino acids), which is critical for their potential biological activity in vivo was evaluated.
Cyclic γ-AApeptides M-2-5 (0.1 mg/mL) were incubated with 0.1 mg/mL protease in 100 mM ammonium bicarbonate buffer (pH 7.8) at 37° C. for 20 h. Then, the reaction mixtures were concentrated in a speed vacuum to remove water and ammonium bicarbonate. The resulting residues were re-dissolved in H2O/MeCN and analyzed on a Waters analytical HPLC system.

[3] = tested on: A549 lung tumor xenograft; assay: Antitumor study in A549 lung tumor xenograft mouse model; assay type: in vivo, mice; conditions: every two days for seven times
[4] = biological target: T1, EGFR phosphorylation (P-EGFR) (Homo sapiens, UniProt P00533); assay: Western blot of EGF-stimulated EGFR phosphorylation in A549 cells; assay type: cell-based
T1 construct: endogenous in cells; host or cells: A549
T1 sequence (P00533 25-1210): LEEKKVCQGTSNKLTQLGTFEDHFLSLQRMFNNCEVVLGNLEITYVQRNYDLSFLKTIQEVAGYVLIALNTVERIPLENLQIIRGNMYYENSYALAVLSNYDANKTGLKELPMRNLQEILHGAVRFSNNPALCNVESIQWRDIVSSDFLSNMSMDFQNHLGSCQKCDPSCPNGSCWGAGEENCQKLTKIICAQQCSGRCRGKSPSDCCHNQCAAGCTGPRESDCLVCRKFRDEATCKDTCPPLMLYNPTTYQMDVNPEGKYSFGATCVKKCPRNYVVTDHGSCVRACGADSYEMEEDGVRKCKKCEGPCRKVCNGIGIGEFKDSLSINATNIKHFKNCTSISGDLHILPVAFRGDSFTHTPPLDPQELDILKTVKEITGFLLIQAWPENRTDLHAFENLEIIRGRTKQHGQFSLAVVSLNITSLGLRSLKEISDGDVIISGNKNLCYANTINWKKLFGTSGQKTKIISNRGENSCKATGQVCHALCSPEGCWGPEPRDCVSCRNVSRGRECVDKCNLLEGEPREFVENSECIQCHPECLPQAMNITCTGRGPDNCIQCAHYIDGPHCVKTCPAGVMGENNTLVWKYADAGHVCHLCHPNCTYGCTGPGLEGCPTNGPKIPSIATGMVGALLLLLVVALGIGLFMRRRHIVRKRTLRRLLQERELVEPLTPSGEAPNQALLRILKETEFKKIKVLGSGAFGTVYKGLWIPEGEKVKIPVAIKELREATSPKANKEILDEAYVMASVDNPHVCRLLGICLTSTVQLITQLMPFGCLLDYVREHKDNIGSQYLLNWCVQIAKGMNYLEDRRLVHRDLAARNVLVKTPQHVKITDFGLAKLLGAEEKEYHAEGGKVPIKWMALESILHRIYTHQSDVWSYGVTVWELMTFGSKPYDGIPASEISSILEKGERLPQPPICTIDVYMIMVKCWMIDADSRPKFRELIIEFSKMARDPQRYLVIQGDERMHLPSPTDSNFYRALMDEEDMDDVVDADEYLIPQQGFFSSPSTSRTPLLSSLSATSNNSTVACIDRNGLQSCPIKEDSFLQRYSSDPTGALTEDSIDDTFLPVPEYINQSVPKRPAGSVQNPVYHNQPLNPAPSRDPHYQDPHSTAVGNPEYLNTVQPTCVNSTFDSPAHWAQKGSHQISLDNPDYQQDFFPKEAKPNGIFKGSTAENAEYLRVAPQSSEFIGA
Experimental: (§1) A549 cells were chosen due to their elevated expression of EGFR. […] The ability of M-2-5 to inhibit EGF-stimulated tyrosine phosphorylation of EGFR, as well as downstream AKT and ERK pathways in a dose-dependent manner was then investigated.
(§2) A549 cells were seeded into a 6-well plate at a concentration of 1×10^5 cells/well. After 12 h attachment at 37° C. and 5% CO2, the cells were starved overnight in serum-reduced DMEM followed by treatment with different concentration of M-2-5 for 4 h. […] Subsequently, the cells were incubated on ice for 10 min and centrifuged at 14,000×g at 4° C. for 10 min. An equal amount of protein was run on 4˜12% Bis-Tris gels, transferred to polyvinylidene difluoride membranes (Millipore) and western blotted with anti-phosphorylated EGFR, anti-phosphorylated AKT, anti-phosphorylated ERK and GAPDH. The experiments were conducted in triplicates and repeated for three times.

P-EGFR = biological target: T2, P-EGFR (Homo sapiens, UniProt P00533); assay: Western blot of P-EGFR in A549 tumor lysates; assay type: in vivo, mice; conditions: M-2-5 50 mg/kg
T2 construct: from tissue; host or cells: A549 xenograft tumours from nude mice
T2 sequence (P00533 25-1210): as above
Experimental: (§3) After another 6 days post injection, mice were sacrificed, and tumors were resected. […] To confirm the expression level of P-EGFR and downstream signaling, the total proteins were extracted from tumor tissues in each group and subjected to immunoblotting of P-EGFR, P-ARK and P-ERK. […] In addition, the phosphorylation level of EGFR in the A549 tumor sections was analyzed by immunohistochemical staining.
(§4) The supernatant was transferred to a new tube and samples were centrifuged at 14,000 rpm for 15 min at 4° C. to remove any remaining insoluble material. The supernatant containing soluble proteins was transferred to a new tube and an aliquot was taken for the quantification and the further western blot analysis.

[5] = tested on: ERK phosphorylation (P-ERK); assay: Western blot of downstream ERK phosphorylation in A549 cells; assay type: cell-based; conditions: starved A549 cells, 4 h pretreatment, EGF 100 ng/mL
Experimental: as §1, §2

[6] = tested on: Human Embryonic Kidney HEK293 cells
[7] = tested on: AKT phosphorylation (P-AKT); assay: Western blot of downstream AKT phosphorylation in A549 cells; assay type: cell-based; conditions: starved A549 cells, 4 h pretreatment, EGF 100 ng/mL
Experimental: as §1, §2

A549 cells [8] = assay: EGF-driven cell proliferation assay (CCK-8); assay type: cell-based; conditions: A549, EGF 100 ng/mL, 48 h
Experimental: A549 cells were cultured in high-glucose DMEM (Gibco) medium containing 10% fetal bovine serum and 1% penicillin/streptomycin in an atmosphere of 5% CO2 at 37° C. A549 cells in good condition were seeded into a 96-well plate at a concentration of 1×10^3 cells/well in 100 of complete growth medium. After 24 hours of attachment at 37° C. and 5% CO2, medium was replaced by fresh serum reduced DMEM and cell were serum-starved overnight. […] After 48 h, the CCK-8 reagents were added according to the manufacturer's recommendations.

P-AKT = assay: Western blot of P-AKT in A549 tumor lysates; assay type: in vivo, mice; conditions: M-2-5 50 mg/kg
Experimental: as §3, §4

PAMPA-GIT assay = conditions: pH 5.0, 6.2 and 7.4 (FIG. 8B)
Experimental: (§7) Carbamazepine and Antipyrine were used as the positive and negative control compounds for the assay.
The PAMPA-GIT assay procedure was realized by using a method developed by pION. All liquid handling steps for the PAMPA assay are performed on a TECAN Fredom EVO150 robot and analyzed by the pION's PAMPA Evolution Software. The pION's GIT PAMPA includes the acceptor sink buffer (ASB), the GIT-0 Lipid Solution and the Stirwell™ PAMPA Sandwich plate, preloaded with magnetic disks. 4 μL of lipid were transferred in the acceptor well, followed by addition of 200 μL of ASB (pH 7.4). […] The PAMPA sandwich plate was assembled and placed on the Gut-Box™ and stirred with 40 μm ABL settings for 30 min. The distribution of the compounds in the donor and acceptor buffers (150 μL aliquot) was determined by UV spectra measurement from 200 to 498 nm using the Tecan infinite M-1000 pro microplate reader. Then the Permeability (Papp, 10 ^6 cm/s) of each compound was calculated by the pion PAMPA evolution software. The assays were repeated three times.

P-ERK = assay: Western blot of P-ERK in A549 tumor lysates; assay type: in vivo, mice; conditions: M-2-5 50 mg/kg, compared to C225
Experimental: (§5) Based upon the observed strong inhibition of cell proliferation and migration, the ability to inhibit EGFR cell signaling pathways in vitro, as well as the remarkable stability against proteolytic degradation, the antitumor activity of M-2-5 in a A549 lung tumor xenograft mouse model was evaluated in vivo. […] After another 6 days post injection, mice were sacrificed, and tumors were resected. […] To confirm the expression level of P-EGFR and downstream signaling, the total proteins were extracted from tumor tissues in each group and subjected to immunoblotting of P-EGFR, P-ARK and P-ERK. […] In addition, the phosphorylation level of EGFR in the A549 tumor sections was analyzed by immunohistochemical staining. […] Together with its similar function to monoclonal antibody and its high resistance toward proteolytic degradation, it could be further investigated for promising clinical anti-cancer drug development.
For the detection of phosphorylated EGFR, AKT and ERK in tumors in vivo, a portion of the tumor (80 mg) was immersed in 500 μL extraction buffer (50 mM Tris-HCl (pH 7.4), 150 mM NaCl, 1% NP-40, 0.25% Na-deoxycholate, Protease Inhibitor, SDS 0.1-2%), and tubes were vortexed briefly. […] The supernatant containing soluble proteins was transferred to a new tube and an aliquot was taken for the quantification and the further western blot analysis.

A549 cells [9] = assay: Scratch-wound (cell wound healing) assay; assay type: cell-based; conditions: A549, 25 μM, 30 h
Experimental: (§6) M-2-5's inhibitory effect on cell migration of A549 cells, which plays an important role in tumor metastatic activity, was then investigated. First, a scratch-wound assay was established to investigate the cell migratory behaviors.
A549 cells in good condition were seeded into a 12-well plate at a concentration of 5×10^4 cells/well. After 24 h attachment at 37° C. and 5% CO2, they reached confluence as a monolayer. The monolayer was scratched gently and slowly with a new 200 μL pipette tip across the center of the well straightly. After scratching, the well was washed twice with medium to remove the detached cells. The well was then replenished with fresh medium containing different concentration of M-2-5. The photo was taken for the scratched monolayer and then captured again after 30 h for the same wound. The wound width was measured by ImageJ. The experiments were conducted in triplicates and repeated for three times.

A549 cells [10] = assay: Transwell migration assay; assay type: cell-based; conditions: A549, EGF + M-2-5 25 μM, 12 h
Experimental: as §6
A549 cells in good condition were seeded into a 100 mm dish at a concentration of 5×10^5 cells. After overnight attachment at 37° C. and 5% CO2, culture medium was replaced with serum reduced DMEM medium, and the dish was returned to incubator for 24 h. Cells were the detached and resuspended in DMEM at a concentration of 1×10^6 cells/mL. Next, 100 μL of cell solution was plated on top of the filter membrane in a transwell insert and incubated for 10 minutes at 37° C. and 5% CO2 to allow the cells to settle down. Subsequently, 600 μL of the desired chemo-attractant was added very carefully into the bottom of the lower chamber in a 24-well plate. The culture was incubated for 12 h, and then the transwell insert was removed from the plate. A cotton-tipped applicator was used as many times as needed to carefully swab the inside of each insert. Cells were fixed by 70% ethanol, stained by 0.2% crystal violet and visualized by microscope. Transwell data was determined by the number of the migrated cells and the value from parental cells was arbitrarily set at 100%. The experiments were conducted in triplicates and repeated for three times.

[11] = Body weight of A549 tumor xenografted mice; assay type: in vivo; conditions: 10 and 50 mg/kg intraperitoneal, FIG. 10
Experimental: as §5
A549 cells were harvested, resuspended in PBS, and injected subcutaneously into 4-6 weeks old Male BALB/c nude mice. When the tumors reach an average size of 100 mm^3, the mice were then randomized divided into four treatment groups: Control (PBS), C-225 (40 mg/kg), M-2-5 (10 mg/kg) and M-2-5 (50 mg/kg). […] The tumor volumes were determined by measuring length (l) and width (w) and calculating volume (V=lw^2/2).

PAMPA-BBB assay = conditions: pH 7.4
Experimental: as §7
The parallel artificial membrane permeability assay—blood brain barrier (PAMPA-BBB) assay procedure was realized by using a method developed by pION. All liquid handling steps for the PAMPA assay are performed on a TECAN Fredom EVO150 robot and analyzed by the pION's PAMPA Evolution Software. The pION's PAMPA-BBB includes the brain sink buffer (BSB), the BBB-1 Lipid Solution and the Stirwell™ PAMPA Sandwich plate, preloaded with magnetic disks. 4 μL of lipid were transferred in the acceptor well, followed by addition of 200 μL of BSB (pH 7.4). […] The PAMPA sandwich plate was assembled and placed on the Gut-Box™ and stirred with 60 μm Aqueous Boundary Layer (ABL) settings for 1 hour. The distribution of the compounds in the donor and acceptor buffers (150 μL aliquot) was determined by UV spectra measurement from 200 to 500 nm using the Tecan infinite M-1000 pro microplate reader. […] Experiments were repeated three times.

## Cc1cc(=O)n(-c2ccccc2)n1C [Antipyrine]
[1]
  Papp values (background): low Papp values

## NC(=O)N1c2ccccc2C=Cc2ccccc21 [Carbamazepine]
[2]
  absorption in the human gastrointestinal tract: > 90%

## COc1cc(CC(=O)N2CC(=O)N[C@@H](Cc3ccccc3)CN(CC(N)=O)C(=O)CCSCc3ccc(cc3)C(=O)N[C@@H](CCCCN)CN(C(=O)CCC3CCCCC3)CC(=O)N[C@@H](Cc3ccccc3)CN(C(=O)CCc3ccccc3)CC(=O)N[C@@H](Cc3ccccc3)C2)cc(OC)c1 [M-2-5]
pronase
  degradation by pronase monitored by HPLC: no detectable degradation
[3]; 10 mg/kg intraperitoneal
  tumor volume versus PBS group: no significant differences
[3]; 50 mg/kg intraperitoneal
  tumor growth versus PBS group: significant suppression of tumor growth
[4]
  IC50: 17.7 µM
[4]; starved A549 cells, 20 μM M-2-5 for 4 h, EGF 100 ng/mL (FIG. 5C, 5D)
  effect on EGF-induced EGFR activation: blocked a vast majority of EGFR activation
[4]; starved A549 cells, 4 h pretreatment, 25 μM or more
  inhibition of EGF stimulation of EGFR phosphorylation at 25 μM or more: almost complete blockage
P-EGFR
  P-EGFR level in tumor tissue: dramatic decrease
[5]
  IC50: 11.2 µM
[6]; A549 versus HEK293
  selectivity toward cancer cells over normal cells: ~8 fold
[6]; read-out: IC50 for HEK293 cells, no EGF stimulation, CCK-8
  IC50: 62.1 µM
[7]
  IC50: 8.75 µM
A549 cells [8]; CCK-8, read-out: IC50 of antiproliferative activity on EGF-stimulated cells
  IC50: 8.23 µM
A549 cells [8]; at ˜10 (unit not given), versus control without EGF
  suppression of EGF-driven cell proliferation at ˜10: complete suppression of cell proliferation
P-AKT
  P-AKT level in tumor tissue: dramatic decrease
PAMPA-GIT assay
  Papp, PAMPA-GIT (in words): favorable Papp without pH-dependence
P-ERK
  inhibition of P-ERK in tumor tissue: slightly weaker efficiency
A549 cells [9]
  percent of wound closed: 15.2%
A549 cells [9]; control 55.3%
  decrease of wound closed compared with untreated control: 40%
A549 cells [10]
  number of migrating cells relative to untreated control (100%): 64.8%
[11]
  body weight gain: did not affect the body weight gain
PAMPA-BBB assay
  Papp at 1 h, 50 μM: 266
